One assay deals with noci-TRAP^hM4 mice. The experiment in a line: Thermal gradient track adaptive avoidance. The format is in vivo. Conditions: versus saline. How it is done: To evaluate affective-motivational responses evoked by thermal stimulation (81), we applied either a single, unilateral 50-μL drop of water (5, 30, or 55° C.) or acetone (evaporative cooling) to the left hindpaw, and the duration of attending behavior was collected for up to 60 s after the stimulation. Only one drop stimulation was applied on a given testing session. To evaluate adaptive thermal avoidance and temperature preference, we placed mice in the center of a linear Thermal Gradient Track (121.92-cm L×8.25-cm W metal alloy floor; 15.24-cm H black plastic walls), with the floor featuring a temperature gradient along the long axis. Mice freely explored the track for 60 min. To create the temperature gradient, we placed either heating or cooling plates (Bioseb) under the outermost 16.51 cm of the metal floor, with one plate set to 50.0° C. and the other set to 0.0° C., creating an actual floor gradient of 48° C.→5° C., respectively. The track was subdivided into 25 temperature zones (4.8-cm D per zone), and we assessed the temperature at the center of each zone by a K-probe thermocouple. […] A video camera placed above the track recorded the position of the mouse within the temperature zones, and videos were later analyzed using a video-tracking software (Etho-vision, Noldus) for duration of zone occupancy, zone visits, distance, velocity, and acceleration.

In assay [1] the test system is neuropathic TRAP^hM4 mice. The experiment in a line: Neuropathic (spared nerve injury) reflexive and affective-motivational pain behaviors. The format is in vivo. Conditions: day 42 postinjury. The text has this: To induce a chronic pain state, we used a modified version of the Spared Nerve Injury (SNI) model of neuropathic pain, as previously described (70). This model entails surgical section of two of the sciatic nerve branches (common peroneal and tibial branches) while sparing the third (sural branch). […] To perform this peripheral nerve injury procedure, anesthesia was induced and maintained throughout surgery with isoflurane (4% induction, 1.5% maintenance in oxygen). The left hind leg was shaved and wiped clean with alcohol and betadine. We made a 1-cm incision in the skin of the mid-dorsal thigh, approximately where the sciatic nerve trifurcates. […] Mice were then returned to their home cage and closely monitored over the following three days for well-being.
We habituated mice inside individual red plastic cylinders (10.16-cm D) on a raised flat, perforated metal platform (60.96-cm H) for 3 days prior to the start of behavioral sensory testing. After basal thermal and mechanical thresholds were measured, mice underwent a peripheral nerve injury surgery (Spared Nerve Injury, SNI; see “Chronic neuropathic pain model” above for details of the surgical procedure). […]

The next assay concerns BLA neurons. The assay can be described thus: Clozapine-N-oxide control experiments with BLA Ca2+ imaging (no hM4 expression). It is filed as in vivo, mice. To be noted: CNO 10 mg/kg. The protocol: To check for possible alterations of neural activity in the presence of CNO alone (i.e., no hM4 expression), we conducted a shortened version of the main protocol (FIGS. 15D-15G). We injected mice with CNO (10 mg/kg), then placed them back in their home cage. After approximately 25 min, we mounted the miniature microscope on the mouse's head and placed them within the test chamber. They habituated for 10 min followed by adlibitum access to 10% sucrose solution delivered in the same manner as previously described. Mice then received a battery of stimuli: light touch (0.07-g von Frey filament), noxious pin (25G needle), or aloud noise (˜85 dB, same as previously described). We collected all subsequent data, processed Ca2+ imaging movies, and performed analysis similar to the main protocol used in FIG. 7.

In the case of `C[N+]1([O-])CCN(C2=Nc3cc(Cl)ccc3Nc3ccccc32)CC1` [CNO, clozapine-N-oxide], the “visits to the noxious zones” value in the assay with noci-TRAP^hM4 mice (polar ends noxious cold (5 to 17° C.) and hot (42 to 8° C.)) is “more frequently”. Also, the “occupancy of the noxious zones” value with noci-TRAP^hM4 mice (polar ends noxious cold (5 to 17° C.) and hot (42 to 48° C.)) is on record as “prolonged periods”. For the same molecule, in assay [1], the reflexive hypersensitivity result is “did not alter”. In assay [1] (regardless of stimulus intensity or modality), the neuropathic affective-motivational behaviors entry was “profound decrease”. Also, the “mean neural response to various stimuli” value in the assay on BLA neurons is on record as “did not alter”.
